Among the data in a melting point compilation (Tetko et al.; mined from patent text by program, amines drawn as free bases though some values may be those of a salt) are melting point values, retold here.

By melting point is commonly meant the temperature, or range, at which the solid turns liquid. In the case of `Cn1ncc(C(=O)N2CCC2)c1C(=O)Nc1ccc2nc(-c3ccccc3)nn2c1`, the melting point lay within 235 to 236 °C.

In turn, `Cc1cc(C)c([N+](=O)[O-])cc1N1CCC1=O` registered a melting point of 102 °C.

Consider `COC(=O)c1ccc2c(c1)C(C#N)=CCC2`, for which the melting point lay in the range of 73 to 75 °C.

Consider `CC(=NOCc1ccc(OCc2nc(-c3ccccc3)oc2C)cc1)C(=O)O`, for which the melting point is 147 to 148 °C.

As to `COC1c2ccccc2CSc2ccc(C#N)cc21` (stereo not given), the melting point was in the range of 117 to 118 °C.

Turning to `CC(=O)Nc1ccc(C#N)c(F)c1F`, the melting point fell in the range of 175 to 177 °C.

Turning to `Cc1[nH]cnc1CSCCNC1=C([N+](=O)[O-])CCCN1`, the melting point was 206 °C.

For `CC(CCCc1ccccc1)n1nnc2c(=O)[nH]c(C(=O)c3ccccc3)nc21` (stereo not given), the melting point worked out at 105 °C.

`COc1ccc(-c2ccnnc2)cc1OC1CCCC1`: the melting point was in the range of 100 to 102 °C.

Compound `COc1ccc(OC)c2c1C[C@](O)(C1(C)OCCO1)CC21SCCS1` yielded a melting point of 143 to 145 °C.

The compound `CCCCc1nn2cccc(C(=O)OC)c2c1Cc1ccc(-c2ccccc2C#N)cc1` showed a melting point of 92 to 95 °C.

`CC(C)(C)OC(=O)Nc1cc(N2CCOC2=O)c(-c2ccc(F)cc2)cc1N` displayed a melting point of 210 °C.

For `COc1cc([N+](=O)[O-])c2nccc(C)c2c1OCCCCCCCCc1ccccc1`, the melting point fell in the range of 39.5 to 41 °C.

For the compound `FC(F)(F)c1ccc(-c2cc(Oc3cccc4sccc34)ncn2)cc1`, the melting point is 122 °C.

`O=C(O)c1cn2c3c(c(N4CCCC4)c(F)cc3c1=O)CCN2Cc1ccccc1` registered a melting point of 174 to 180 °C.

`COC(=O)c1ccc(-c2cc(CCNC(C)=O)c3cc(OC)ccc3c2)cc1` showed a melting point of 147 to 149 °C.

Consider `CN=C(NS(=O)(=O)N1CCCCC1)C1=NN(c2ccc(Cl)cc2)C(c2ccccc2)C1` (stereo not given), for which the melting point fell in the range of 141 to 144 °C.

The compound `COc1ccc2c(c1)OC(CN1CC=C(c3c[nH]c4ccccc34)CC1)CO2` (stereo not given) had a melting point of 166 to 168 °C.

The compound `O=C(Nc1ccc2ncccc2c1)OCc1ccccc1` displayed a melting point of 122 °C.

Compound `CCOCc1nc2c(N)nc3ccccc3c2n1NCCCNC(=O)NC(C)C` came in with a melting point of 174 to 177 °C.

As to `O=C1N(c2cc(Cl)cc(Cl)c2)C(=O)C2(Cc3ccc(-c4cccnc4)cc3)CCCCN12` (stereo not given), the melting point was 276 °C.

In turn, `CC1(C(=O)C(C(O)C(Cl)(Cl)Cl)n2cncn2)CC1` (stereo not given) had a melting point of 216 to 218 °C.

Regarding `CCOC(=O)c1cnn(-c2ccc(Cl)cc2Cl)c1C(F)(F)F`, the melting point was in the range of 81 to 83 °C.

With `O=C(O)CCc1oc(-n2cnc3ccccc32)nc1-c1ccc(C(F)(F)F)cc1`, the melting point is 224 to 226 °C.

In the case of `Cc1nc(N)nc(N)c1-c1cc(I)ccc1Cl`, the melting point fell in the range of 232 to 234 °C.

With `CCOC(=O)Cc1ccc(SCc2ccc(Cl)cc2C(=O)O)cc1`, the melting point is 109 to 112 °C.

Turning to `CC(=O)Nc1ccc(C)cc1C(=O)c1ccc(F)cc1`, the melting point is 140 to 145 °C.

`CCOC(=O)C1c2c([nH]c3ccccc23)C2=C(CCC2)C1C#N` (stereo not given) gave a melting point of 192 to 195 °C.

Compound `O=C1CC2(CC2)CC(=O)O1` had a melting point of 102 °C.

In the case of `CNC(=O)c1ccccc1Nc1nc(Nc2ccc3c(c2)CCC(NCC(F)(F)F)CC3)ncc1Cl` (stereo not given), the melting point is 202 to 203 °C.

Compound `COc1nc(CNC(=O)NS(=O)(=O)c2ccccc2S(=O)(=O)N(C)C)nc(OC)n1` registered a melting point of 183 to 189 °C.

`CCCc1nc2c(N)nc(C)c(C)c2n1CCCC(N)=O` gave a melting point of 226 to 228 °C.

Take `CC[C@H](C)[C@H](NC(C)=O)C(=O)N[C@H](C(=O)N[C@@H](CC1CCCCC1)[C@@H](O)[C@@H](O)CC(C)C)[C@@H](C)CC`: the melting point was in the range of 247 to 248 °C.

For `CCCCOC1CCCC(C2NC(=O)C2C(C)O[Si](C)(C)C(C)(C)C)C1O` (stereo not given), the melting point lay within 105 to 106 °C.

`CC(C)(C)c1cc(CCc2ccccc2NC(=O)NCCCc2cccs2)cc(C(C)(C)C)c1O`: the melting point was 150 °C.

In the case of `CCOC(=O)c1c(C)nc2c(cnn2CCC(C)CC)c1N` (stereo not given), the melting point was in the range of 217 to 222 °C.

In the case of `CCc1cc(N2CCCCC2)c(S(C)(=O)=O)cc1C(=O)N=C(N)N`, the melting point lay in the range of 218 to 220 °C.

For the compound `O=C(NCCc1ccc(Cl)cc1Cl)Nc1cccc2[nH]ccc12`, the melting point is 170 °C.

The compound `COc1ccc2c3c1OC1C(=O)CC(C)C4C(C2)N(C#N)CCC314` (stereo not given) showed a melting point of 237 to 241 °C.

As for `CCNC(=O)c1cc(Cl)ccc1Br`, the melting point was in the range of 98 to 99 °C.

`Nc1ccc(-c2nc3ccc(Br)cc3s2)cc1`: the melting point fell in the range of 219 to 221 °C.

As for `CC1=NC(NC(=O)Nc2cccc(C)c2)C(=O)N(CC(=O)C23CC4CC(CC(C4)C2)C3)c2c(C)cccc21` (stereo not given), the melting point was 182 to 184 °C.

`O=C1CCC(c2ccc([N+](=O)[O-])cc2)CC1` gave a melting point of 160 to 162 °C.

Compound `Cc1occ(C(F)(F)F)c1C(=O)O` came in with a melting point of 140 °C.

In the case of `CN(C)c1nnc(-c2ccc3ncn(-c4ccc(OC(F)(F)F)cc4)c3c2)o1`, the melting point lay in the range of 224 to 225 °C.

For `Cc1ccc2sc(=O)[nH]c2c1`, the melting point is 86 to 88 °C.

As for `Cn1nc(-c2ccccc2)nc1-c1ccncc1`, the melting point is 132 to 134 °C.

In turn, `Cn1cc(-c2ccccc2)c(=S)c(-c2cccc(Br)c2)c1` gave a melting point of 185 to 188 °C.

Compound `CCOC(=O)C(C)(C)Oc1ccc(CNc2ccc(Cl)cc2)cc1OC` came in with a melting point of 73 to 74 °C.

The compound `C[C@@H](NC(=O)Nc1ccc(C(C)(C)C)cc1)c1ccc(NS(C)(=O)=O)c(C#C[Si](C)(C)C)c1` returned a melting point of 118 to 120 °C.

`Cc1ccc(-c2ccc(-c3nnn(CCCCCCc4cccnc4)n3)cc2)cc1C` registered a melting point of 63 to 64 °C.

In turn, `CCNC(=NS(=O)(=O)c1ccc(O)cc1)N1N=CCC1c1ccccc1` (stereo not given) came in with a melting point of 158 to 160 °C.

Take `C=CCC(CC=C)n1c(CC)nc2c1c(=O)n(C)c(=O)n2-c1ccc(Cl)cc1Cl`: the melting point fell in the range of 145 to 146 °C.

`CNC1CCN(c2c(F)cc3c(=O)c(C(=O)O)cn(C4CC4)c3c2C)CC1C` (stereo not given) yielded a melting point of 233 to 235 °C.

As to `N#Cc1ccc(Cn2cncn2)cc1-c1ccc(OS(N)(=O)=O)cc1`, the melting point was in the range of 159 to 162 °C.

In turn, `CC(=O)N(C)c1cccc(S(=O)(=O)c2ccc(N)cc2)c1` registered a melting point of 178 to 180 °C.

For the compound `O=C(NCCCn1cnc(-c2ccccc2)c1)c1ccco1`, the melting point is 120 to 122 °C.

Turning to `COC1(OC)CC2CC[C@@]1(CS(=O)(=O)N(C(C)C)C(C)C)C2(C)C`, the melting point was in the range of 73.8 to 74.6 °C.

`Cc1cccc(-c2nc3cccnn3c2-c2ccnc(NC(=O)c3ccccc3)c2)c1` showed a melting point of 178 to 180 °C.

`COc1ccc2c(c1)C(=O)C(=Cc1cccc([N+](=O)[O-])c1)CO2` showed a melting point of 157 to 159 °C.

`CCCc1nc(C(C)(C)O)c(C(=O)O)n1Cc1ccc(-c2ccccc2C(=O)OC(C)(C)C)cc1` displayed a melting point of 155 to 157 °C.

In the case of `O=[N+]([O-])c1cn2c(n1)OC[C@@H](OCc1ccc(Cl)nn1)C2`, the melting point lay in the range of 180 to 184 °C.

Turning to `CCc1nc2cnc3ccccc3c2s1`, the melting point was 48 to 49 °C.

Take `CCCCc1nc2c(N)nc3cccnc3c2n1CCCCN1CC=Cc2cc(C(N)=O)ccc21`: the melting point is 190 to 191 °C.

On to `CC(=O)NCCCCC(NC(C)=O)C(C)=O` (stereo not given), for which the melting point lay within 111 to 113 °C.

`Cc1cc(O)cc2oc(=O)ccc12` showed a melting point of 256 °C.

For the compound `Cc1nc[nH]c1CSCCCNC(=N)N`, the melting point was in the range of 156 to 158 °C.

Take `CC(C)Oc1ccc2nc[nH]c(=O)c2c1`: the melting point is 206 to 208 °C.

`O=C(CC1(c2cccc(C(F)(F)F)c2F)CC1)C(=O)Nc1ccc2c(c1)COC2=O`: the melting point fell in the range of 165 to 166 °C.

The compound `Cn1ncc2c(=O)n3c(nc21)SC(c1ccccc1)C3c1ccccc1` (stereo not given) gave a melting point of 159 °C.

Compound `CC(=O)C1=C(O)C(=C(C)Nc2cc(NC(=O)C(O)CO)cc(NC(=O)C(O)CO)c2)C(=O)OC1=O` (stereo not given) had a melting point of 231 °C.

Compound `CCOC(=O)COCc1nnc(S)o1` yielded a melting point of 101 to 103 °C.

On to `Cc1cc(C)cc(C(N)=O)c1`, for which the melting point was 148 to 149 °C.

`Cc1c(C)c(N2C(=O)c3cc(Cl)c(Cl)cc3C2=O)c(C)c2c1OC(C)(C)C2c1ccc(C(C)C)cc1` (stereo not given) yielded a melting point of 237 to 239 °C.

With `CCCCc1nc(C(C)(C)O)c(C#N)n1C(c1ccccc1)(c1ccccc1)c1ccccc1`, the melting point is 151 to 152 °C.

As for `C[C@H](COc1ccccc1)Nc1nc(F)nc2c1ncn2[C@@H]1O[C@H](CO)[C@@H](O)[C@H]1O`, the melting point is 148 to 150 °C.

Regarding `CCCCc1nc2cc(C(=O)O)ccc2n1Cc1ccccc1Cl`, the melting point lay within 238 to 239 °C.

With `COc1c(C)c(C)c(OC)c(Cn2ccnc2)c1C`, the melting point lay in the range of 82 to 83 °C.

For `COc1ccc2oc(S(=O)(=O)c3ccc(=O)[nH]n3)cc2c1`, the melting point was 222 to 223 °C.

As for `CC(C)COC(=O)C(C#N)=CNCCc1ccco1`, the melting point is 42 to 44 °C.

In turn, `COc1ccc(C(=O)Oc2ccccc2)c(O)c1` had a melting point of 61.5 to 62.5 °C.

Turning to `N#Cc1cc2c(s1)CCCC2NC=O` (stereo not given), the melting point is 131 to 134 °C.

In turn, `Clc1ccc(-c2ncn(CCCN3CCOCC3)c2-c2ccncc2)cc1Cl` gave a melting point of 106 °C.

In the case of `COc1ccc2c(c1)c(-c1[nH]c3nccnc3c1C)cn2C`, the melting point is 243 to 244 °C.

Regarding `COc1cccc(-c2ccnc3c(C#N)cnn23)c1`, the melting point lay in the range of 165 to 166 °C.

Compound `CCCCOC(=O)[C@H]1CN(c2ccc(N3CCSCC3)c(F)c2)C(=O)O1` displayed a melting point of 128 to 130 °C.

Consider `COc1ccc(Cn2c(=O)c3c(N4CCN(C)CC4)cc(Cl)cc3n(Cc3ccccc3)c2=O)cc1`, for which the melting point was in the range of 81 to 89 °C.

Compound `CC=C1CCC2C3C(OC(C)=O)CC4CC(OC(C)=O)CCC4(C)C3CCC12C` (stereo not given) showed a melting point of 92 to 93 °C.

In the case of `O=C(Cl)C=C(c1ccccc1)c1ccc([N+](=O)[O-])cc1`, the melting point was in the range of 117 to 120 °C.

As for `CCOC(=O)C(O)=Cc1cc(OCc2ccccc2)ncn1`, the melting point is 136 to 137 °C.
